# Experimental data from patent publication US20230087359A1, “CANNABINOID COMPOSITIONS AND METHODS OF USE THEREOF” (DAY THREE LABS MAN[…]., priority 2017, published 2023).
# Test system: pentobarbital-induced sleep
# Assay: Loss Of Righting Reflex (LORR) test, pentobarbital-induced sleep in mice
# Format: in vivo, mouse (7-week-old male Balb/C mice)
# [1] = LORR test, IP treatment 30 min before pentobarbital 30 or 40 mg/kg IP, diazepam 3 mg/kg
smiles,measurement,setting,value
CN1C(=O)CN=C(c2ccccc2)c2cc(Cl)ccc21 [diazepam],percentage of mice in treatment group that fell asleep after pentobarbital administration,"Example 1, FIG. 3",92%
same,percentage of subjects with a transient awakening (woke up once) during the sleep session,"Example 1, FIG. 4",25%
same,percentage of subjects with no transient awakenings during the sleep session,"Example 1, FIG. 4",75%
same,percentage of mice in treatment group that fell asleep after pentobarbital administration (response rate),"Example 2, FIG. 7",86%
same,mean sleep duration,[1],60 to 90 min
same,mean sleep onset,[1],3 to 5 min
